Experimental data taken from patent publication US20060241183A1, “Compositions and methods of using D-DOPA to treat Parkinson's disease” (priority 2004, published 2006).

How the values were obtained:
[1] = system: urinary excretion of dopamine; details: D- and L-DOPA 50 mg/kg; cited from earlier work
[2] = system: striatal dopamine and its metabolites (DOPAC and HVA); test: Striatal dopamine, DOPAC and HVA after intraventricular administration of L-DOPA, D-DOPA or DHPPA; type: in vivo, Sprague-Dawley rats; details: for Striatal DOPAC / Striatal Dopamine / Striatal HVA: intraventricular, 10 μl, 2 h after treatment, mean ± S.E.M.
Method: The present example illustrates the possible involvement of DHPPA in the formation of dopamine from D-DOPA. […] In an attempt to examine an alternate pathway, four groups of Sprague-Dawley rats weighing 120-150 grams with cannulae permanently implanted into their lateral ventricles, according to the procedure described in Robinson et al., Physiol. Behav. 4, 123-124, (1969), were used. One group received 10 μl. of saline into the ventricles. The second, third and fourth groups received, intraventricularly, 200.μ.g of L-DOPA, D-DOPA and 3,4-dihydroxyphenylpyruvic acid (DHPPA) in 10 μl of saline, respectively. The rats were sacrificed two hours after treatment and their striata removed and analyzed. Striatal concentrations of dopamine, DOPAC and HVA were measured by massfragmentography according to the procedure set forth in Karoum, Neuromethods.

[3] = system: striatal concentration of dopamine, DOPAC and HVA; test: Striatal dopamine, DOPAC and HVA after intragastric D- or L-DOPA plus carbidopa in rats with unilateral substantia nigra lesions; type: in vivo, male Sprague-Dawley Rats; details: for time for formation of dopamine in the striatum to reach its maximum concentration: after intragastric administration, inferred from DOPAC and HVA in lesion striata; for time to achieve maximum concentration of dopamine in the central nervous system: following intragastric administration; for increase of dopamine and its metabolites in the intact striata, D- versus L-DOPA / time at which dopamine content in the intact striata peaked / change of dopamine concentrations in the lesion striata: intragastric administration; for change of concentrations of DOPAC and HVA in the lesion striata: one hour after treatment
Text: The present example illustrates the efficacy of the administration of D-DOPA of L-DOPA in vivo. In order to show the effectiveness of D-DOPA for increasing striatal dopamine content, male Sprague-Dawley Rats (Zivic-Miller, Allison Park, Pa.) weighing 300 to 400 grams were used. At least four weeks prior to the experiments, unilateral Substantia Nigra lesions were produced with intranigral administration of 6-hydroxydopamine according to the procedures set forth in Ungerstedt, Acta Physiol. Scand. (Suppl.) 367, 69 (1971).
The extent of unilateral Substantia Nigra lesions was tested by measuring apomorphine simulated rotation according to the procedures described in Understedt, supra, 1971; Freed et al. Ann. Neurol. 8, 510 (1980).
Either D- or L-DOPA was intragastrically administered to the rats in combination with carbidopa at doses of 50 mg/kg body weight of D-DOPA or L-DOPA and 5 mg/kg body weight of carbidopa, suspended in sterile water, to provide a pharmaceutically acceptable solution for administration. D- or L-DOPA was intragastrically administered to groups of five rats, which were sacrificed one or two hours after treatment. The left (intact) and right (lesioned) striata of these rats were excised and analyzed separately for the content of dopamine and its metabolites 3,4-dihydroxyphenylacetic acid (DOPAC) and homovanillic acid (HVA), according to the procedure as set forth in Karoum, Neuromethods, Vol. 2 (G. B. Baker, A. A. Boulton and J. M. Baker eds.), The Humana Press, Inc., New Jersey, page 305, 1985 (referred to hereafter as “Karoum, Neuromethods”).

[4] = system: hypothalamic dopamine; test: Hypothalamic dopamine and metabolites after intragastric D- and L-DOPA; type: in vivo; details: after intragastric administration
Text: DHPPA can be formed from D-DOPA by either of two pathways, that is, direct transamination, or through deamination by D-amino acid oxidase, an enzyme widely distributed in the brain. The pattern of changes of striatal dopamine and its metabolites observed after intragastric administration of D- and L-DOPA are similar to those observed in the hypothalamus.

[5] = system: circling; details: rats with unilateral 6-hydroxydopamine lesion; cited from earlier work
[6] = biological target: T1, L-amino acid decarboxylase (Homo sapiens, UniProt P20711); details: cited from earlier work
T1 sequence (P20711 1-480): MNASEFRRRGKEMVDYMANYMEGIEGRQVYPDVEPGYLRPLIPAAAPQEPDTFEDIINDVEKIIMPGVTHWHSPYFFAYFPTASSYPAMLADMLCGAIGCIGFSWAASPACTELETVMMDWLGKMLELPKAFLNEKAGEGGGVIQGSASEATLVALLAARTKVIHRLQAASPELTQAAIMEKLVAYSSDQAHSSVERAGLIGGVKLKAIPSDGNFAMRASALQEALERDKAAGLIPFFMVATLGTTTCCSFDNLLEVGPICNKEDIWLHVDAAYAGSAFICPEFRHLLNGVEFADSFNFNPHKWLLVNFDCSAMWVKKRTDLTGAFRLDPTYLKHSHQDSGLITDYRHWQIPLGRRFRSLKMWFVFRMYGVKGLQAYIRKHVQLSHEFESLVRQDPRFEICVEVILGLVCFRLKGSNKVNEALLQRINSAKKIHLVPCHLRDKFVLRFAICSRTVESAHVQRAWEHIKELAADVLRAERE

[7] = system: striatal dopamine or its metabolites; test: Repeated intragastric administration of DHPPA plus carbidopa, striatal dopamine and metabolites; type: in vivo; details: concluded from repeated intragastric administration

SMILES	reduction of urinary excretion of dopamine following D-DOPA compared with co-administration with L-DOPA [1]	Striatal DOPAC [2]	Striatal Dopamine [2]	Striatal HVA [2]	time for formation of dopamine in the striatum to reach its maximum concentration [3]	time to achieve maximum concentration of dopamine in the central nervous system [3]	increase of dopamine and its metabolites in the intact striata, D- versus L-DOPA [3]	time at which dopamine content in the intact striata peaked [3]	change of dopamine concentrations in the lesion striata [3]	change of concentrations of DOPAC and HVA in the lesion striata [3]	increases in hypothalamic DOPAC and HVA, L-DOPA versus D-DOPA [4]	induction of circling [5]	substrate for L-amino acid decarboxylase [6]	elevations of dopamine and DOPAC compared with D- or L-DOPA ([2]; intraventricular administration)	crossing of the blood brain barrier [7]
C[C@@](Cc1ccc(O)c(O)c1)(NN)C(=O)O [Carbidopa, carbidopa]	to a far greater degree	–	–	–	–	–	–	–	–	–	–	–	–	–	–
N[C@@H](Cc1ccc(O)c(O)c1)C(=O)O [L-DOPA]	–	59 ± 9.49 ng/mg protein	120 ± 7.4 ng/mg protein	22.2 ± 1.60 ng/mg protein	within one hour	1 h	to about the same extent	one hour	Neither D- nor L-DOPA increased dopamine concentrations	markedly increased	considerably higher	–	–	–	–
N[C@H](Cc1ccc(O)c(O)c1)C(=O)O [D-DOPA]	–	19 ± 0.92 ng/mg protein	116 ± 5.1 ng/mg protein	4.8 ± 0.50 ng/mg protein	within one hour	2 h	to about the same extent	two hours	Neither D- nor L-DOPA increased dopamine concentrations	markedly increased	–	can induce circling	not a substrate	–	–
O=C(O)C(=O)Cc1ccc(O)c(O)c1 [DHPPA, 3,4-dihydroxyphenylpyruvic acid]	–	96 ± 16.6 ng/mg protein	140 ± 11.0 ng/mg protein	23.3 ± 3.53 ng/mg protein	–	–	–	–	–	–	–	–	–	larger elevations	does not easily cross the blood brain barrier
